Patent publication US20040116448A1, “Substances for the therapy of diseases caused by highly proliferating cells” (priority 2001, published 2004)

Legend:
[1] = tested on: BJAB cells; experiment: DNA fragmentation (propidium iodide staining, flow cytometry) apoptosis assay in BJAB cells; assay type: cell-based; details: 20 μM
Method: The measurement of apoptosis is based on a method which detects the fragmentation of DNA on the level of individual cells, which is typical of apoptosis and distinguishes this form of cell death from necrosis. Thus, BJAB cells were treated with different concentrations of N76 or N69 for 24 h. Controls contained corresponding amounts of the solubilizer ethanol. After the treatment, the fragmentation of DNA was measured by staining with propidium iodide followed by quantification by flow cytometry as described by Essmann et al. (2000). The values are stated as % of apoptotic cells based on the total population±SD (n=3).
(§1) Further studies had the result that the BJAB cells are driven to the mitochondrial apoptosis signal pathway by JV-206-1. […] In addition, the fragmentation of the DNA was measured as a specific characteristic of apoptosis as described by Essmann et al. (2000). […] In these experiments, the proportion of apoptotic cells was between 20% and 48% of the total population, depending on the concentration and incubation time.

[2] = tested on: BJAB cells; experiment: Mitochondrial membrane potential (JC-1 staining) in BJAB cells; assay type: cell-based
Method: as §1

[3] = tested on: BJAB cells; experiment: Cell death of BJAB cells after incubation with JV-206-1 (FIG. 6A); assay type: cell-based; details: incubation for 48 hours
Method: as §1

[4] = tested on: BIAB cells; experiment: Combined proliferation and cell death assay (Neubauer cell counting, trypan blue staining); assay type: cell-based; details: 25 μM, after 24 h
Method: To further characterize the role of the various components of the newly described substances, the iron-complexed compound N69 and the compound obtainable from N69 by cleaving the Fe(CO)3 group were prepared and employed in a combined proliferation and cell death assay. Thus, BIAB cells were treated for 24 h and 72 h. with different concentrations of N69 or the corresponding compound lacking the iron complex. Controls contained corresponding amounts of the solubilizer ethanol. After the treatment, the number of cells was counted in a Neubauer counting chamber, and the number of dead cells was counted by trypan blue staining as described by Wieder et al. (1995). […] FIG. 5B states the proportion of dead cells in %±SD (n=3) as determined at these times at the respective concentration. […] As can be easily seen, the complexed iron plays an important role in the cell-death inducing activity of the substances. The complexed iron shifts the dose-effect curve of the cell-death inducing effect of N69 towards lower concentrations.

[5] = tested on: cells from patients suffering from different leukemias; experiment: DNA fragmentation apoptosis assay in cells from patients suffering from different leukemias; assay type: cell-based, human; details: 25 μmol/l, 36 h
Method: The usefulness of substances according to the invention for the therapy of various malignant diseases of the hematopoetic system was tested on cells from patients suffering from different diseases. Thus, cells from patients suffering from different leukemias were isolated and, after dilution with cell culture medium, treated for 36 h with 25 μM N69. Controls contained corresponding amounts of the solubilizer ethanol. After the treatment, the fragmentation of the DNA was measured by staining with propidium iodide followed by quantification by flow cytometry as described by Essmann et al. (2000). The result can be seen in FIG. 3. The measured values are stated as % of apoptotic cells based on the total population and represent the mean value from duplicate experiments.

[6] = tested on: lymphoblasts from children afflicted with acute lymphoblastic leukemia (ALL); experiment: DNA fragmentation apoptosis assay in primary lymphoblasts from children with acute lymphoblastic leukemia (ALL); assay type: cell-based, human; details: 25 μM, 36 h
Method: In this experiment, lymphoblasts from children afflicted with acute lymphoblastic leukemia (ALL) were isolated and, after dilution with cell culture medium, treated for 36 h with 25 μM N76, 25 μM N69 or with 9 μM epirubicin (E) as a positive control. Controls contained corresponding amounts of the solubilizer ethanol. After the treatment, the fragmentation of the DNA was measured by staining with propidium iodide followed by quantification by flow cytometry as described by Essmann et al. (2000). The values are stated as % of apoptotic cells based on the total population±SD (n=3).
Thus, with N76 and N69, two substances of general structural formula 2 are provided as effective agents against certain tumor cells, especially those of childhood ALL, but also against other malignant diseases of different origin. […] In these experiments, the cells from eleven ALL patients were isolated and, after dilution with cell culture medium, treated for 36 h with 25 μM N69, 25 μM N76 or corresponding amounts of cytarabin (AraC), fludarabin or doxorubicin. […] After the treatment, the fragmentation of the DNA was measured by staining with propidium iodide followed by quantification by flow cytometry as described by Essmann et al. (2000). P values were calculated from a paired t test and are stated in FIG. 4 directly for the individual pairs to be compared. […]

| Compound | cell death by apoptosis (DNA fragmentation) [1] | fraction of cells having a reduced mitochondrial membrane potential (ΔΨm) [2] | induction of cell death [3] | proportion of dead cells (trypan blue) [4] | induction of apoptotic cell death ([5]; cells from patients suffering from acute myeloblastic leukemia (AML)) | induction of apoptotic cell death ([5]; cells from patients suffering from chronic myeloblastic leukemia (CML)) | induction of apoptotic cell death ([5]; cells from patients with a first manifestation of ALL) | induction of apoptotic cell death ([5]; cells from patients with a recurrence of acute lymphoblastic leukemia (ALL-Rez)) | pro-apoptotic effect in vitro towards primary ALL cells compared to established cytostatic agents ([6]; cells from eleven ALL patients, versus doxorubicin, cytarabin and fludarabin-5′ dihydrogenphosphate, paired t test) | induction of apoptosis in vitro in therapy-resistant cells of patients ([6]; ALL lymphoblasts, in contrast to 9 μM epirubicin (positive control)) |
| --- | --- | --- | --- | --- | --- | --- | --- | --- | --- | --- |
| CCOC(=O)C=CC1=C[C@H](n2cc(Br)c(=O)[nH]c2=O)C[C@H]1CO[Si](C)(C)C(C)(C)C(C)C.O=[C]=[Fe](=[C]=O)=[C]=O (racemic) [JV-206-1, (3RS,5RS)-3-[3-(5-bromo-2,4-dioxo-3,4-dihydro-2H-pyrimidin-1-yl)-5-[dimethyl-(1,1,2-trimethylpropyl)silanyloxymethyl]-cyclopent-1-enyl]acrylic-acid-ethyl-estertricarbonyliron] | major part of the cells die | concentration-dependent increase | induces cell death | – | – | – | – | – | – | – |
| exo-[2′,2″,3′,3″-η-(3′-(3″-(E)-acrylic-acid-ethyl-ester-3″-yl)-2′,3′-didehydro-2′,3′-dideoxy-5′-O-(dimethylthexylsilyl)-β-D-cytidine)]tricarbonyliron [N69] | – | – | – | about 90% | induces apoptotic cell death | induces apoptotic cell death | induces apoptotic cell death | induces apoptotic cell death | significantly better pro-apoptotic effect | induce apoptosis |
